Assay results taken from patent US20050107423A1, “Quinolone antibacterial agents” (priority 2003, published 2005).
Converted amounts (≈) assume the structure as drawn.

Legend:
Assay in all cases: Antibacterial assay, microtitration MIC (Test A)
Format in all cases: cell-based
S. aureus UC-76 = conditions: Staphylococcus aureus, UC76, Gram Positive Bacteria; strain UC-76; read-out: Minimum Inhibitory Concentrations S. aureus UC-76
Summary of the method: (§1)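 Std microtitration MIC; Gram-neg and Gram-pos strains.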

S. pneumo SV-1 = conditions: Gram Positive Bacteria; strain SV-1; read-out: Minimum Inhibitory Concentrations S. pneumo SV-1
Summary of the method: as §1

E. faecalis MGH-2 = conditions: Enterococcus faecalis, MGH2, Gram Positive Bacteria; strain MGH-2; read-out: Minimum Inhibitory Concentrations E. faecalis MGH-2
Summary of the method: as §1

S pyogenes C203 = conditions: Gram Positive Bacteria; strain C203; read-out: Minimum Inhibitory Concentrations S pyogenes C203
Summary of the method: as §1

SMILES	MIC (S. aureus UC-76)	MIC (S. pneumo SV-1)	MIC (E. faecalis MGH-2)	MIC (S pyogenes C203)
Cc1c(N2CC3(CO)CCCC3(CO)C2)c(F)cc2c(=O)c(C(=O)O)cn(C3CC3)c12 (stereo not shown) [drawing 463]	0.004 µg/mL (≈ 0.00929 µM)	0.06 µg/mL (≈ 0.139 µM)	0.125 µg/mL (≈ 0.29 µM)	0.125 µg/mL (≈ 0.29 µM)
Cc1c(N2CC(C(O)CO)C(C)(C)C2)c(F)cc2c(=O)c(C(=O)O)cn(C3CC3)c12 (stereo not shown) [drawing 434]	0.008 µg/mL (≈ 0.0191 µM)	0.125 µg/mL (≈ 0.299 µM)	0.125 µg/mL (≈ 0.299 µM)	0.125 µg/mL (≈ 0.299 µM)
COc1c(N2CCC(C3(O)CC3)C2)c(F)cc2c(=O)c(C(=O)O)cn(C3CC3)c12 (stereo not shown) [drawing 360]	0.015 µg/mL (≈ 0.0373 µM)	0.125 µg/mL (≈ 0.311 µM)	0.125 µg/mL (≈ 0.311 µM)	0.25 µg/mL (≈ 0.621 µM)
Cc1c(N2CC(C(O)CO)C3(CC3)C2)c(F)cc2c(=O)c(C(=O)O)cn(C3CC3)c12 (stereo not shown) [drawing 431]	0.008 µg/mL (≈ 0.0192 µM)	0.125 µg/mL (≈ 0.3 µM)	0.125 µg/mL (≈ 0.3 µM)	0.125 µg/mL (≈ 0.3 µM)
COc1c(N2C[C@@H](CO)[C@@H](CO)C2)c(F)cc2c(=O)c(C(=O)O)cn(C3CC3)c12 [drawing 403]	0.002 µg/mL (≈ 0.00492 µM)	0.06 µg/mL (≈ 0.148 µM)	0.06 µg/mL (≈ 0.148 µM)	0.06 µg/mL (≈ 0.148 µM)
COc1c(N2CC3CC(O)C(O)C3C2)c(F)cc2c(=O)c(C(=O)O)cn(C3CC3)c12 (stereo not shown)	0.008 µg/mL (≈ 0.0191 µM)	0.25 µg/mL (≈ 0.597 µM)	0.25 µg/mL (≈ 0.597 µM)	0.25 µg/mL (≈ 0.597 µM)
Cc1c(N2C[C@@H]3C[C@@H](O)[C@@H](O)[C@@H]3C2)c(F)cc2c(=O)c(C(=O)O)cn(C3CC3)c12 [drawing 457]	0.008 µg/mL (≈ 0.0199 µM)	0.125 µg/mL (≈ 0.311 µM)	0.125 µg/mL (≈ 0.311 µM)	0.125 µg/mL (≈ 0.311 µM)
O=C(O)c1cn(C2CC2)c2c(OC(F)F)c(N3CC4CC(O)C(O)C4C3)c(F)cc2c1=O (stereo not shown) [drawing 459]	0.008 µg/mL (≈ 0.0176 µM)	0.25 µg/mL (≈ 0.55 µM)	0.25 µg/mL (≈ 0.55 µM)	0.5 µg/mL (≈ 1.1 µM)
Cc1c(N2CCC(C(F)(F)CO)C2)c(F)cc2c(=O)c(C(=O)O)cn(C3CC3)c12 (stereo not shown) [drawing 368]	0.008 µg/mL (≈ 0.0195 µM)	0.06 µg/mL (≈ 0.146 µM)	0.125 µg/mL (≈ 0.305 µM)	0.25 µg/mL (≈ 0.609 µM)
Nc1nc(-n2cc(C(=O)O)c(=O)c3cc(F)c(N4C[C@@H](O)[C@@H](O)C4)nc32)c(F)cc1F [drawing 399]	0.125 µg/mL (≈ 0.286 µM)	0.5 µg/mL (≈ 1.14 µM)	0.5 µg/mL (≈ 1.14 µM)	0.25 µg/mL (≈ 0.572 µM)
COc1c(N2CCC(C(O)C3(O)CC3)C2)c(F)cc2c(=O)c(C(=O)O)cn(C3CC3)c12 (stereo not shown) [drawing 361]	0.015 µg/mL (≈ 0.0347 µM)	0.25 µg/mL (≈ 0.578 µM)	0.5 µg/mL (≈ 1.16 µM)	0.25 µg/mL (≈ 0.578 µM)
COC[C@@H]1CN(c2c(F)cc3c(=O)c(C(=O)O)cn(C4CC4)c3c2C)C[C@@H]1CO [drawing 408]	0.004 µg/mL (≈ 0.00989 µM)	0.03 µg/mL (≈ 0.0742 µM)	0.06 µg/mL (≈ 0.148 µM)	0.06 µg/mL (≈ 0.148 µM)
COc1c(N2C[C@]3(CO)CCC[C@]3(CO)C2)c(F)cc2c(=O)c(C(=O)O)cn(C3CC3)c12 [drawing 462]	0.15 µg/mL (≈ 0.336 µM)	0.25 µg/mL (≈ 0.56 µM)	0.5 µg/mL (≈ 1.12 µM)	1 µg/mL (≈ 2.24 µM)
